Measurements: US8728539B2, “Method of enhancing intestinal pinocytosis of immunoglobulins in postnatal domestic mammals” (Incorporated Administrative Agency, National Agriculture …, priority 2004, dated 2014)

How the values were obtained:
calves (Holstein types) [1] = assay: IgG in plasma of postnatal calves fed colostrum with added selenium, measured by radial immuno-diffusion (RID); assay type: in vivo; settings: for IgG in Plasma: plasma 24 hours post-parturition
Description: In the example, colostrum added with selenium was administered to one of the two calves (Holstein types) in a pair, and colostrum without selenium was administered to the other calf. A total of 32 pairs of calves were employed for experimental purposes. For equalizing the experimental conditions of these two sets of calves, they were selected based on their proximities in body weight. The body weights ranged from 30.8-56.9 kg, and the differences between in body weight within a pair were less than 2.5 kg.
(§1) As a supply source of selenium, sodium selenite was used. In order to avoid different absorption rates of immunoglobulins based on different types of colostrum, the same amounts of colostrum milked from the same source were fed to these two calves in a pair. The colostrums fed (frozen for preservation) were of the four types as follows: the first milking post-parturition (Colostrum 1), the second milking post-parturition (Colostrum 2), the third milking post-parturition (Colostrum 3), and the fourth milking post-parturition (Colostrum 4). 2 liters of Colostrum 1 (1 L×2 bottles) were taken, and for the rest, 4 liters (2L×2 bottles) were taken, respectively. 1 liter of Colostrum 1 within 2 hours post-parturition was fed, and then 2 liters of Colostrum 2, 3 and 4 were fed, respectively 12, 24 and 36 hours post-parturition. The concentrations of immunoglobulins in the colostrums used were 24.3-129.0 mg/ml, and those of selenium were 0.06-0.1 ppm (before adding selenium). The concentrations of immunoglobulins G (IgG) in plasma of calves 24 hours post-parturition were measured by means of radial immuno-diffusion (RID). The experiments as above were carried out while varying the selenium content based on the number of addition of selenium, i.e., (1) adding selenium only to Colostrum 1 (1.0-5.0 ppm), and (2) adding selenium to all four types of colostrum (0.2-4.0 ppm).

calves (Holstein types) [2] = assay: as above; assay type: in vivo
[3] = Selenium concentration in plasma of calves after administration (FIG. 4); assay type: in vivo, calves (Holstein types); settings: 3 ppm selenium, administered only once within 3 hours postnatal; versus no addition
Source text: as §1, with “ppm). […]” for “ppm).”

calves (Holstein types) [4] = assay: Biochemical blood tests (18 factors) for adverse effects of added selenium; assay type: in vivo; settings: blood samples 24, 48 hours and 1 week post-parturition; versus colostrum without selenium
Description: Moreover, the blood samples were taken 24, 48 hours and 1 week post-parturition respectively, and biochemical blood tests (with 18 factors) were carried out to investigate any adverse effects of added selenium on the health conditions of calves. There was little difference between the test results of the calves administered with colostrum added with selenium, and those of the calves administered with colostrum without selenium.

calves (Holstein types) [5] = assay: Absorption of lactalbumin into plasma of calves (FIG. 5); assay type: in vivo; settings: 3 ppm selenium in first colostrum feed; 24 hours postnatal; versus no addition
Description: To calves administered with colostrum with selenium, selenium was added only to the first colostrum feeds.
Therefore, selenium is effective in absorption of nonimmunoglobulin proteins such as lactalbumin. Accordingly, selenium enhances pinocytosis, thereby enhancing immunoglobulin proteins or nonimmunoglobulin proteins.

[6] = 3 ppm selenium, first feed only, versus no addition

O=[Se]([O-])[O-].[Na+].[Na+] [Se, sodium selenite]
IgG in Plasma (calves (Holstein types) [1]; 0.2 ppm Se added to all four colostrum feeds (4x), average of 3 calves): 25.7 mg/mL
IgG in Plasma (calves (Holstein types) [1]; 1 ppm Se added only to first colostrum feed (1x), average of 3 calves): 17 mg/mL
IgG in Plasma (calves (Holstein types) [1]; 1.0 ppm Se added to all four colostrum feeds (4x), average of 5 calves): 32.9 mg/mL
IgG in Plasma (calves (Holstein types) [1]; 2 ppm Se added only to first colostrum feed (1x), average of 3 calves): 16 mg/mL
IgG in Plasma (calves (Holstein types) [1]; 3 ppm Se added only to first colostrum feed (1x), average of 6 calves): 21.5 mg/mL
IgG in Plasma (calves (Holstein types) [1]; 4 ppm Se added only to first colostrum feed (1x), average of 4 calves): 17.4 mg/mL
IgG concentration in plasma, four feeds with selenium versus first feed only with selenium (calves (Holstein types) [1]; 4x versus 1x addition of selenium): about the same level
IgG in Plasma (calves (Holstein types) [1]; 5 ppm Se added only to first colostrum feed (1x), average of 4 calves): 23 mg/mL
IgG concentrations in plasma versus calves given colostrum without selenium (FIGS. 2 and 3) (calves (Holstein types) [1]; in most of the experimental conditions, 1x and 4x addition): shown to be higher
duration of high immunoglobulin G level in blood (FIG. 7) (calves (Holstein types) [2]; [6]): the high level against no addition was maintained over 14 days (2 weeks)
immunoglobulin G level in blood immediately after administration (FIG. 7) (calves (Holstein types) [2]; [6]): immunoglobulin G level immediately after administration of selenium is high
IgG in Plasma (calves (Holstein types) [2]; 5.0 ppm Se added to all four colostrum feeds (4x), plasma 24 hours post-parturition, average of 4 calves): 24.6 mg/mL
immunoglobulin G level in blood, selenium and colostrum administered separately (FIG. 6) (calves (Holstein types) [2]; only 3 ppm selenium within 2 hours postnatal, then only colostrum at 12, 24, 36 hours, within 24 hours postnatal, versus no addition): absorption level of immunoglobulin G is high
selenium level in blood, temporal change (FIG. 4) [3]: high selenium level in blood was maintained over 4 weeks postnatal
adverse effects on the health conditions of calves, biochemical blood tests (18 factors) (calves (Holstein types) [4]): no adverse effects
absorption of lactalbumin (FIG. 5) (calves (Holstein types) [5]): enhances the absorption of lactalbumin
